Test systems include HT29 colon; A549 NSCLC; U251 CNS; OVCAR-8 ovarian; CAKI-1 renal; IGROV1 ovarian; SK-OV-3 ovarian; UO-31 renal; BT-549 breast; SF-268 CNS; MOLT-4 leukemia; SNB-19 CNS; OVCAR-3 ovarian; KM12 colon; MALME-3M melanoma; SK-MEL-28 melanoma; MDA-MB-435; TK-10 renal; NCI-H522 lung.
Common to all, as to test: DTP human tumour cell line panel, 48 h

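Test compounds were applied to cells in 96-well plates for 48 hours at 5 doses. The concentration for full growth arrest is given as TGI.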

With `CCOC(=O)n1[nH]c(=O)n(-c2ccccc2)c1=O`, the TGI in the assay with HT29 colon, in the assay with A549 NSCLC, with U251 CNS, with OVCAR-8 ovarian, in the assay with CAKI-1 renal and with IGROV1 ovarian was above 100 µM each time. For the same molecule, the TGI with SK-OV-3 ovarian, in the assay with UO-31 renal, with BT-549 breast, in the assay on SF-268 CNS, in the assay on MOLT-4 leukemia and with SNB-19 CNS was above 100 µM throughout. The TGI in the assay with OVCAR-3 ovarian, in the assay with KM12 colon, in the assay on MALME-3M melanoma, in the assay with SK-MEL-28 melanoma, in the assay on MDA-MB-435 and in the assay with TK-10 renal was above 100 µM each time.
As to `O=c1c2cc([N+](=O)[O-])ccc2n(Cc2ccccc2)n1Cc1ccccc1`, the concentration for total growth inhibition (TGI) in the assay on HT29 colon is above 31.6 µM; in the assay with A549 NSCLC it was above 31.6 µM; in the assay on U251 CNS, above 31.6 µM; with OVCAR-8 ovarian it was 22.4 µM; with CAKI-1 renal it was above 31.6 µM; in the assay on NCI-H522 lung, 23.6 µM. In addition, the total growth inhibition concentration (TGI) in the assay on IGROV1 ovarian is above 31.6 µM; in the assay on UO-31 renal, 27.3 µM; in the assay with BT-549 breast it was 27 µM; with SF-268 CNS, above 31.6 µM; in the assay with MOLT-4 leukemia, above 31.6 µM; in the assay on SNB-19 CNS, above 31.6 µM. Also, the TGI with OVCAR-3 ovarian was above 31.6 µM; in the assay on KM12 colon it was 22.2 µM; in the assay on MALME-3M melanoma it was above 31.6 µM; in the assay with SK-MEL-28 melanoma it was above 31.6 µM; in the assay with MDA-MB-435, 17.5 µM; with TK-10 renal it was above 31.6 µM.
Take `N#CC1=C(S)N(C2OC(CO)C(O)C(O)C2O)C(c2ccccc2)=CC1c1ccccc1` (stereo unspecified): the TGI in the assay with HT29 colon, in the assay on A549 NSCLC, in the assay with U251 CNS, with OVCAR-8 ovarian, in the assay with CAKI-1 renal and in the assay on NCI-H522 lung was above 100 µM throughout. Further, the TGI in the assay on IGROV1 ovarian was above 100 µM; with UO-31 renal it was above 100 µM; in the assay with BT-549 breast, above 100 µM; in the assay with SF-268 CNS it was above 100 µM; with MOLT-4 leukemia it was 86.8 µM; in the assay with SNB-19 CNS, above 100 µM. In addition, the concentration for total growth inhibition (TGI) with OVCAR-3 ovarian is 98.5 µM; in the assay with KM12 colon, above 100 µM; with MALME-3M melanoma, above 100 µM; with SK-MEL-28 melanoma, above 100 µM; in the assay on MDA-MB-435, above 100 µM; in the assay with TK-10 renal it was above 100 µM.
For the molecule `O=C(Cn1cc(-c2ccccc2)nn1)NC1CCCC1`, the TGI with HT29 colon, in the assay with A549 NSCLC, in the assay on U251 CNS, with OVCAR-8 ovarian, in the assay with CAKI-1 renal and in the assay on NCI-H522 lung was above 100 µM throughout. For the same molecule, the total growth inhibition concentration (TGI) in the assay with IGROV1 ovarian, in the assay with BT-549 breast, in the assay with SF-268 CNS, in the assay on MOLT-4 leukemia, in the assay on SNB-19 CNS and with KM12 colon was above 100 µM each time. The concentration for total growth inhibition (TGI) in the assay with MALME-3M melanoma, in the assay on SK-MEL-28 melanoma, with MDA-MB-435 and in the assay on TK-10 renal was above 100 µM in each case.
In the case of `CCCCOC(=O)C1CN2C=CC=NC2=NC1(C(F)(F)F)C(F)(F)F` (stereo unspecified), the total growth inhibition concentration (TGI) in the assay on HT29 colon, in the assay with A549 NSCLC, in the assay on U251 CNS, in the assay on OVCAR-8 ovarian, in the assay on CAKI-1 renal and in the assay with IGROV1 ovarian was above 100 µM each time. The concentration for total growth inhibition (TGI) in the assay with SK-OV-3 ovarian, with UO-31 renal, in the assay with BT-549 breast, in the assay on SF-268 CNS, with MOLT-4 leukemia and in the assay on SNB-19 CNS was above 100 µM each time. Moreover, the TGI with OVCAR-3 ovarian, in the assay on KM12 colon, in the assay on MALME-3M melanoma, in the assay on SK-MEL-28 melanoma, with MDA-MB-435 and in the assay on TK-10 renal was above 100 µM each time.
For `Cc1ccc(OCC2OC(C#N)C(Oc3ccc(C)cc3)C2Oc2ccc(C)cc2)cc1` (stereo unspecified), the TGI in the assay with HT29 colon, with A549 NSCLC, in the assay with U251 CNS, with OVCAR-8 ovarian, in the assay on CAKI-1 renal and in the assay on NCI-H522 lung was above 100 µM each time. For the same molecule, the concentration for total growth inhibition (TGI) in the assay with IGROV1 ovarian, in the assay on SK-OV-3 ovarian, in the assay on UO-31 renal, in the assay with BT-549 breast, in the assay with SF-268 CNS and in the assay on MOLT-4 leukemia was above 100 µM throughout. Besides, the total growth inhibition concentration (TGI) in the assay on SNB-19 CNS, in the assay on OVCAR-3 ovarian, in the assay with KM12 colon, in the assay on SK-MEL-28 melanoma and in the assay with MDA-MB-435 was above 100 µM in each case.
Consider `Cc1cc2c(c(C=Nc3ccc([N+](=O)[O-])cc3)c1)OC1(C=C2)Oc2ccccc2C(=O)N1C` (stereo unspecified), for which the TGI was 36.3 µM with HT29 colon; above 100 µM in the assay with A549 NSCLC; 42.8 µM in the assay with U251 CNS; 36.9 µM in the assay on OVCAR-8 ovarian; 48.4 µM with CAKI-1 renal; above 100 µM in the assay on NCI-H522 lung. The TGI in the assay with IGROV1 ovarian was 56.6 µM; in the assay on SK-OV-3 ovarian, 59.8 µM; with UO-31 renal it was 42.3 µM; in the assay with BT-549 breast, 58.7 µM; in the assay with SF-268 CNS, 51.2 µM; in the assay on MOLT-4 leukemia, 35 µM. For the same molecule, the concentration for total growth inhibition (TGI) was above 100 µM in the assay with SNB-19 CNS; 60.9 µM in the assay with OVCAR-3 ovarian; 46.2 µM with KM12 colon; 44.8 µM in the assay with SK-MEL-28 melanoma; above 100 µM in the assay on MDA-MB-435; 74.2 µM with TK-10 renal.
With `CC(NC(=O)C(N)Cc1ccc(O)cn1)C(=O)O` (stereo unspecified), the concentration for total growth inhibition (TGI) in the assay with HT29 colon, in the assay on A549 NSCLC, with U251 CNS, with OVCAR-8 ovarian, in the assay on CAKI-1 renal and in the assay on NCI-H522 lung was above 100 µM each time. Besides, the TGI in the assay with IGROV1 ovarian, in the assay on UO-31 renal, in the assay with BT-549 breast, in the assay on SF-268 CNS, in the assay on MOLT-4 leukemia and with SNB-19 CNS was above 100 µM throughout. Moreover, the concentration for total growth inhibition (TGI) in the assay on OVCAR-3 ovarian, with KM12 colon, with MALME-3M melanoma, in the assay with SK-MEL-28 melanoma, with MDA-MB-435 and with TK-10 renal was above 100 µM each time.

Values taken from PubChem BioAssay (NCI).
